Assay results: BindingDB's records for patent US11160797 (NOVARTIS AG, 2021)

Target: T1, Activin receptor type-1 [172-499,R206H] (Homo sapiens, UniProt Q04771, R206H)
T1 construct: 172-499
Assay: In Vitro Enzyme Inhibition Using a Biochemical Peptide Phosphorylation Assay- Caliper Assay

T1 sequence (Q04771 172-499 R206H): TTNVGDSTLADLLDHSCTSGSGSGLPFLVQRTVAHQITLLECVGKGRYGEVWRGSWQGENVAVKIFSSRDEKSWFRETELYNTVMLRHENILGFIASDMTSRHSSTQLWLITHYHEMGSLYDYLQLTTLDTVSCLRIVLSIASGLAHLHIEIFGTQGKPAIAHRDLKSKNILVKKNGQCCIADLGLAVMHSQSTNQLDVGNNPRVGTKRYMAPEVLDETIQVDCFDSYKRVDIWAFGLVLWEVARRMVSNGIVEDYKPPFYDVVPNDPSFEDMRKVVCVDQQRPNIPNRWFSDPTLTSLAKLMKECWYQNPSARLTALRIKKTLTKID

IC50: 140 nM
SMILES: CC(C)CN1c2ccc(-c3cncc(-c4ccc(=O)n(C(C)C)c4)c3)cc2CS1(=O)=O [US11160797, Example 50]
